{
  "source": "paper PMC7594079",
  "about": "“Insights into the Function and Evolution of Taste 1 Receptor Gene Family in the Carnivore Fish Gilthead Seabream (Sparus aurata)” (International Journal of Molecular Sciences, 2020)",
  "data": [
    {"molecular_target": "T1, saT1R1/R3 (Sparus aurata, UniProt A0A671TNH8+A0A671VZB3)", "T1 sequence (A0A671TNH8 23-847)": "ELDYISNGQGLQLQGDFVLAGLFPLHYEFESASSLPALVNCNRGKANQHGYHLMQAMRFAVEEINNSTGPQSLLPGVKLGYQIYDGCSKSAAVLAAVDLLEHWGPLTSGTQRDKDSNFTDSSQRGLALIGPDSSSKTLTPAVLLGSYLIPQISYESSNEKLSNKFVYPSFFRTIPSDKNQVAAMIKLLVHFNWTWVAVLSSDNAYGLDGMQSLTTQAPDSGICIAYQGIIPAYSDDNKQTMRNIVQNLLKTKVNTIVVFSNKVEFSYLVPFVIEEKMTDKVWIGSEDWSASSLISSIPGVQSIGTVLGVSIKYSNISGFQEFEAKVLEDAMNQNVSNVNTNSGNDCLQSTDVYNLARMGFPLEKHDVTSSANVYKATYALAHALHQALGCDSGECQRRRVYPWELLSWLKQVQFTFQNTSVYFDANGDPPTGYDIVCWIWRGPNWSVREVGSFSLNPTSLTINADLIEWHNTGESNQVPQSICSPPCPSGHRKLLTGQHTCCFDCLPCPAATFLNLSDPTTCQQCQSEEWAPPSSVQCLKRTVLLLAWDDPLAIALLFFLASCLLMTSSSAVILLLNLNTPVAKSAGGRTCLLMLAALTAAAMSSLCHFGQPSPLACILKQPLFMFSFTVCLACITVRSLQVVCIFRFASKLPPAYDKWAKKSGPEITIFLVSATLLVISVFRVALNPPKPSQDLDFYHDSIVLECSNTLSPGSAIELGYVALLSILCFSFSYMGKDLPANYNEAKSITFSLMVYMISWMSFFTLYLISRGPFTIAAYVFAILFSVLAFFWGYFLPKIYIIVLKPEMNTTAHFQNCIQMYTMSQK", "T1 sequence (A0A671VZB3 24-860)": "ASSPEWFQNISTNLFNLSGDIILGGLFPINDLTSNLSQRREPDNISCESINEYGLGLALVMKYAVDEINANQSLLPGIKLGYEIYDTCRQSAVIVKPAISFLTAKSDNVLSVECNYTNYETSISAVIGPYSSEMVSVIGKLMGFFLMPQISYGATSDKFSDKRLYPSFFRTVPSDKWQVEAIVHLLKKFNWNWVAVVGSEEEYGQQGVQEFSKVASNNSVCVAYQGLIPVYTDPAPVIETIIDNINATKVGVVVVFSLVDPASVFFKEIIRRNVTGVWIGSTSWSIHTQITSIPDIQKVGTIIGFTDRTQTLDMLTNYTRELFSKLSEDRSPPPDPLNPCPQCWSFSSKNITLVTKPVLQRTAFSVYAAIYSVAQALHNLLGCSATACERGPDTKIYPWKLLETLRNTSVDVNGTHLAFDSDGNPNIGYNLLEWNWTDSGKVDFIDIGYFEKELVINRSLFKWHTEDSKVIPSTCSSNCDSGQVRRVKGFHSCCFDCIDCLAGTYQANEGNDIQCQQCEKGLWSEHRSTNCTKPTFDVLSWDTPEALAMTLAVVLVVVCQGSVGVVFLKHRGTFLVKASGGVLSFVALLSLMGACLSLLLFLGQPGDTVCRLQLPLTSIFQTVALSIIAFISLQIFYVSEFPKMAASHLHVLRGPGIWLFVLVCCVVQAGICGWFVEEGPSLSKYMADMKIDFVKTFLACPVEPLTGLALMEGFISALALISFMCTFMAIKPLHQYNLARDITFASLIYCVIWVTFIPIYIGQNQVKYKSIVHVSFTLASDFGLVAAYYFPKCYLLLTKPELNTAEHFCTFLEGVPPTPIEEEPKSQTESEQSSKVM", "test": "saT1R1/R3 heterodimer transiently transfected in stable pGL3-NFAT-luc-HEK293 (Cl.3) cells, luciferase reporter", "format": "cell-based", "conditions": "as molarity; decimal comma", "text": "Figure 6 Amino acid Log-dose response curves of activation in heterologous co-transfected (Cl.3) cells with saT1R1/3 (green dots), saT1R2a/3 (red squares) and saT1R2b/3 (black triangles) heterodimers. Evaluation of L-AA responses was based on the RLU mean ± SEM of four independent determinations normalized to the mean response of the same transfections stimulated with reduced assay medium (Basal Medium Eagle w/o L-glutamate (BME) + 1% FBS), and expressed as the percentage relative to basal levels (BL).\nHEK293 cells were cultured in standard medium DMEM (Gibco, Thermo Fisher, Saint Louis, MO, USA) containing 10% FBS, penicillin (100 U/mL) and streptomycin ([…]) at 37 °C, with a humidified atmosphere at 5% CO2. pGL3-NFAT-luc-HEK293 stable clones were generated by co-transfections of pGL3-NFAT-luc and tgCMV/HyTK plasmids (50:1), the latter harboring the hygromycin phosphotransferase gene, using Lipofectamine LTX according to supplier’s protocols (Thermo Fisher, Saint Louis, MO, USA). Initially, HEK293 cells were selected using DMEM containing 400 μg/mL hygromycin B (Sigma, Darmstadt, Germany) in 24-well plates for two weeks; 24 colonies were further grown out in 96-well plates under reduced hygromycin selection (200 µg/mL) for three weeks. Potentially resistant NFAT-luc-HEK293 clones (n = 22) were validated after incubation in assay medium (DMEM + 1% FBS) containing PMA or Ionomycin (Sigma, Darmstadt, Germany) for 18 h (triplicates, 50,000 cells/well). Luciferase activity was quantified with ONE-Glo™ EX Reagent Kit (Promega, Madison, WI, USA) using a 96-microplate TECAN reader (Trading AG, Switzerland).\nsaT1Rs (saT1R1, saT1R2a, saT1R2b saT1R3) and saGαi1-2 genes were RT-PCR amplified using 5’ and 3’ flanking primers carrying HindIII and XhoI restriction sites, respectively. Gel-purified fragments were cloned into pGEM-T Easy vectors, re-sequenced, digested and subcloned into pcDNA™3 (Invitrogen, Carlsbad, CA, USA). Effective saT1R cloning into pcDNA™3 was further verified by HindIII/XhoI digestion. Transient co-transfections were done in 6-well plates (confluence ~70–80%) using 100 μL of reduced serum medium (Opti-MEM, Gibco, Thermo Fisher, Saint Louis, MO, USA) containing 150 ng of each selected pcDNA™3 construct, 1:10 charge ratio of Enhanced Green Fluorescent expressing construct (EGFP; positive control), and pBluescript II SK (+) vector DNA (Addgene, Watertown, MA, USA) up to 1 µg of totally transfected DNA. Following 24 h incubation, cells were washed with fresh standard medium and plated in polylysine treated plates for additional 24 h. Cells were then stimulated with L-AAs and sugar compounds for 18 h in a reduced assay medium (BME w/o L-glutamate; Gibco, Thermo Fisher, Saint Louis, MO, USA) + 1% FBS), to prevent unspecific Ca^2+/NFAT signaling activation and potential saT1R desensitization. All L-AAs and sugars used for in vitro experiments were obtained from Merck KGaA (Darmstadt, Germany).", "values": [
      {"smiles": "C[C@H](N)C(=O)O", "note": "[Ala, Alanine]", "T1R1/R3 [MSD] maximum stimulation dose": "1,00 × 10^-1 M"},
      {"smiles": "N=C(N)NCCC[C@H](N)C(=O)O", "note": "[Arg, Arginine]", "T1R1/R3 [MSD] maximum stimulation dose": "1,00 × 10^-5 M"},
      {"smiles": "NC(=O)C[C@H](N)C(=O)O", "note": "[Asn, Asparagine]", "T1R1/R3 [MSD] maximum stimulation dose": "1,00 × 10^-1 M"},
      {"smiles": "N[C@@H](CC(=O)O)C(=O)O", "note": "[Asp, Aspartic acid]", "T1R1/R3 [MSD] maximum stimulation dose": "1,00 × 10^-5 M"},
      {"smiles": "N[C@@H](CS)C(=O)O", "note": "[Cys, Cysteine]", "T1R1/R3 [MSD] maximum stimulation dose": "1,00 × 10^-4 M"},
      {"smiles": "NC(=O)CC[C@H](N)C(=O)O", "note": "[Gln, Glutamine]", "T1R1/R3 [MSD] maximum stimulation dose": "1,00 × 10^-1 M"},
      {"smiles": "N[C@@H](CCC(=O)O)C(=O)O", "note": "[Glu, Glutamic acid]", "T1R1/R3 [MSD] maximum stimulation dose": "1,00 × 10^-2 M"},
      {"smiles": "NCC(=O)O", "note": "[Gly, Glycine]", "T1R1/R3 [MSD] maximum stimulation dose": "1,00 × 10^-1 M"},
      {"smiles": "N[C@@H](Cc1c[nH]cn1)C(=O)O", "note": "[His, Histidine]", "T1R1/R3 [MSD] maximum stimulation dose": "1,00 × 10^-5 M"},
      {"smiles": "CC[C@H](C)[C@H](N)C(=O)O", "note": "[Ile, Isoleucine]", "T1R1/R3 [MSD] maximum stimulation dose": "1,00 × 10^-1 M"},
      {"smiles": "CC(C)C[C@H](N)C(=O)O", "note": "[Leu, Leucine]", "T1R1/R3 [MSD] maximum stimulation dose": "1,00 × 10^-1 M"},
      {"smiles": "NCCCC[C@H](N)C(=O)O", "note": "[Lys, Lysine]", "T1R1/R3 [MSD] maximum stimulation dose": "1,00 × 10^-3 M"},
      {"smiles": "CSCC[C@H](N)C(=O)O", "note": "[Met, Methionine]", "T1R1/R3 [MSD] maximum stimulation dose": "1,00 × 10^-1 M"},
      {"smiles": "N[C@@H](Cc1ccccc1)C(=O)O", "note": "[Phe, Phenylalanine]", "T1R1/R3 [MSD] maximum stimulation dose": "1,00 × 10^-2 M"},
      {"smiles": "O=C(O)[C@@H]1CCCN1", "note": "[Pro, Proline]", "T1R1/R3 [MSD] maximum stimulation dose": "1,00 × 10^-1 M"},
      {"smiles": "N[C@@H](CO)C(=O)O", "note": "[Ser, Serine]", "T1R1/R3 [MSD] maximum stimulation dose": "1,00 × 10^-1 M"},
      {"smiles": "C[C@@H](O)[C@H](N)C(=O)O", "note": "[Thr, Threonine]", "T1R1/R3 [MSD] maximum stimulation dose": "1,00 × 10^-1 M"},
      {"smiles": "N[C@@H](Cc1c[nH]c2ccccc12)C(=O)O", "note": "[Trp, Tryptophan]", "T1R1/R3 [MSD] maximum stimulation dose": "1,00 × 10^-3 M"},
      {"smiles": "N[C@@H](Cc1ccc(O)cc1)C(=O)O", "note": "[Tyr, Tyrosine]", "T1R1/R3 [MSD] maximum stimulation dose": "1,00 × 10^-3 M"},
      {"smiles": "CC(C)[C@H](N)C(=O)O", "note": "[Val, Valine]", "T1R1/R3 [MSD] maximum stimulation dose": "1,00 × 10^-1 M"}
    ]}
  ]
}
